Measurements reported in PubChem BioAssay (NCI).
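All cell lines were grown in 96-well plates and treated with compound for 48 hours.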 Active and inactive are the calls of the source. No stated cut-off is given here; in the data, active means GI50 below about 0.43 µM; inactive means the rest.

Legend:
Experiment in all cases: NCI-60 cell line screen, 48 h
HL-60(TB) leukemia = tested on: HL-60(TB) leukemia
HCT-15 colon = tested on: HCT-15 colon
DMS 273 small cell lung = tested on: DMS 273 small cell lung
RXF-631 renal = tested on: RXF-631 renal
HCC-2998 colon = tested on: HCC-2998 colon
LXFL 529 NSCLC = tested on: LXFL 529 NSCLC
KM12 colon = tested on: KM12 colon
UACC-257 melanoma = tested on: UACC-257 melanoma
SNB-19 CNS = tested on: SNB-19 CNS
HOP-62 NSCLC = tested on: HOP-62 NSCLC
DLD-1 colon = tested on: DLD-1 colon
SW-620 colon = tested on: SW-620 colon
U251 CNS = tested on: U251 CNS
ACHN renal = tested on: ACHN renal
IGROV1 ovarian = tested on: IGROV1 ovarian
SNB-78 CNS = tested on: SNB-78 CNS
SN12C renal = tested on: SN12C renal
M14 melanoma = tested on: M14 melanoma
SF-539 CNS = tested on: SF-539 CNS
NCI-H460 lung = tested on: NCI-H460 lung
XF 498 CNS = tested on: XF 498 CNS
HT29 colon = tested on: HT29 colon
RXF 393 renal = tested on: RXF 393 renal
A549 NSCLC = tested on: A549 NSCLC
KM20L2 colon = tested on: KM20L2 colon
DMS 114 small cell lung = tested on: DMS 114 small cell lung
OVCAR-4 ovarian = tested on: OVCAR-4 ovarian
CAKI-1 renal = tested on: CAKI-1 renal
HOP-92 NSCLC = tested on: HOP-92 NSCLC
SK-OV-3 ovarian = tested on: SK-OV-3 ovarian
SNB-75 CNS = tested on: SNB-75 CNS
CCRF-CEM leukemia = tested on: CCRF-CEM leukemia
SR leukemia = tested on: SR leukemia
M19-MEL melanoma = tested on: M19-MEL melanoma
UO-31 renal = tested on: UO-31 renal
OVCAR-3 ovarian = tested on: OVCAR-3 ovarian
NCI-H23 lung = tested on: NCI-H23 lung
LOX IMVI melanoma = tested on: LOX IMVI melanoma
UACC-62 melanoma = tested on: UACC-62 melanoma
K-562 leukemia = tested on: K-562 leukemia
NCI-H522 lung = tested on: NCI-H522 lung
OVCAR-8 ovarian = tested on: OVCAR-8 ovarian
COLO 205 colon = tested on: COLO 205 colon
OVCAR-5 ovarian = tested on: OVCAR-5 ovarian
SK-MEL-2 melanoma = tested on: SK-MEL-2 melanoma
MALME-3M melanoma = tested on: MALME-3M melanoma
EKVX NSCLC = tested on: EKVX NSCLC
RPMI-8226 leukemia = tested on: RPMI-8226 leukemia
SF-295 CNS = tested on: SF-295 CNS
NCI-H226 lung = tested on: NCI-H226 lung
HCT-116 colon = tested on: HCT-116 colon
SF-268 CNS = tested on: SF-268 CNS
MOLT-4 leukemia = tested on: MOLT-4 leukemia
786-0 renal = tested on: 786-0 renal

Measured: outcome

COC(=O)C1(COCc2ccccc2)CCCC2OC21 (centres undefined)
inactive: HL-60(TB) leukemia | HCT-15 colon | DMS 273 small cell lung | RXF-631 renal | HCC-2998 colon | LXFL 529 NSCLC | KM12 colon | UACC-257 melanoma | SNB-19 CNS | HOP-62 NSCLC | DLD-1 colon | SW-620 colon | U251 CNS | ACHN renal | IGROV1 ovarian | SNB-78 CNS | SN12C renal | M14 melanoma | SF-539 CNS | NCI-H460 lung | XF 498 CNS | HT29 colon | RXF 393 renal | A549 NSCLC | KM20L2 colon | DMS 114 small cell lung | OVCAR-4 ovarian | CAKI-1 renal | HOP-92 NSCLC | SK-OV-3 ovarian | SNB-75 CNS | CCRF-CEM leukemia | SR leukemia | M19-MEL melanoma | UO-31 renal | OVCAR-3 ovarian | NCI-H23 lung | LOX IMVI melanoma | UACC-62 melanoma | K-562 leukemia | NCI-H522 lung | OVCAR-8 ovarian | COLO 205 colon | OVCAR-5 ovarian | SK-MEL-2 melanoma | MALME-3M melanoma | EKVX NSCLC | RPMI-8226 leukemia | SF-295 CNS | NCI-H226 lung | HCT-116 colon | SF-268 CNS | MOLT-4 leukemia | 786-0 renal
